From patent US6833389B2, “Use of thiamphenicol and derivatives thereof for the preparation of pharmaceutical compositions useful in the treatment of Chlamydia pneumoniae infections” (Zambon Group S.p.A., priority 2000, dated 2004)
Values after ≈ are worked out from the molar mass of the structure shown. Read-outs that look alike come from different tables or passages of the source.

How the values were obtained:
Chlamydia pneumoniae [1] = assay: MIC against Chlamydia pneumoniae strains in Hep-2 cell monolayers (inhibition of inclusion formation); type: cell-based
Protocol: Chlamydia pneumoniae TW183 and Chlamydia pneumoniae 2023 were obtained from American Type Culture Collection. The other strains (No. 9 isolated) were clinically isolated in the period 1997-1999. […] Monolayers of Hep-2 cells were prepared by seeding 2×10^5 cell/ml in EMEM with 10% fetal calf serum supplemented with L-glutammine, on 12 mm cover slips and left at 35° C., 5% CO2 for 24 to 48 hours for confluent growth. The growth medium was removed and Hep-2 monolayers were inoculated with the different strains at predetermined concentration calculated to give 3-5×10^2 inclusions for well. The monolayers, inoculated with Chlamydia pneumoniae were centrifuged at 1700 g for 60 minutes at 30° C. […] In positive control no antibiotic was added and negative control were considered wells not inoculated with Chlamydia pneumoniae. […] All tests were run in duplicate. The number of inclusions were counted and the MIC (the lowest concentration at which complete inhibition of inclusion formation was observed) was determined.

Chlamydia pneumoniae [2] = conditions: background statement; cited from earlier work
[3] = Chlamydia pneumoniae, 72 h, MIC range over the 11 Chlamydia pneumoniae strains, Hep-2 cells, 3 days, read-out: MIC
[4] = Chlamydia pneumoniae, ATCC2023, strain ATCC 2023, test I, read-out: MIC
[5] = Chlamydia pneumoniae, strain 1 (clinical isolate), test I, read-out: MIC
[6] = Chlamydia pneumoniae, strain 2 (clinical isolate), test I, read-out: MIC
[7] = Chlamydia pneumoniae, strain 2 (clinical isolate), test II, read-out: MIC
[8] = Chlamydia pneumoniae, strain 3 (clinical isolate), test I, read-out: MIC
[9] = Chlamydia pneumoniae, strain 3 (clinical isolate), test II, read-out: MIC
[10] = Chlamydia pneumoniae, strain 4 (clinical isolate), test II, read-out: MIC
[11] = Chlamydia pneumoniae, strain 5 (clinical isolate), test I, read-out: MIC
[12] = Chlamydia pneumoniae, strain 5 (clinical isolate), test II, read-out: MIC

| MIC (Chlamydia pneumoniae [1]; [3]) | SMILES | MIC (Chlamydia pneumoniae [1]; [4]) | MIC (Chlamydia pneumoniae [1]; [5]) | MIC (Chlamydia pneumoniae [1]; [6]) | MIC (Chlamydia pneumoniae [1]; [7]) | MIC (Chlamydia pneumoniae [1]; [8]) | MIC (Chlamydia pneumoniae [1]; [9]) | MIC (Chlamydia pneumoniae [1]; [10]) | MIC (Chlamydia pneumoniae [1]; [11]) | MIC (Chlamydia pneumoniae [1]; [12]) | activity in vitro against Chlamydia pneumoniae (Chlamydia pneumoniae [2]) | also measured |
| --- | --- | --- | --- | --- | --- | --- | --- | --- | --- | --- | --- | --- |
| > 16 mg/L | CC1(C)S[C@@H]2[C@H](NC(=O)[C@H](N)c3ccc(O)cc3)C(=O)N2[C@H]1C(=O)O [Amoxicillin, amoxicillin] | – | – | – | – | – | – | – | – | – | – | – |
| 0.06 to 0.5 mg/L (≈ 0.0801 to 0.668 µM) | CC[C@H]1OC(=O)[C@H](C)[C@@H](O[C@H]2C[C@@](C)(OC)[C@@H](O)[C@H](C)O2)[C@H](C)[C@@H](O[C@@H]2O[C@H](C)C[C@H](N(C)C)[C@H]2O)[C@](C)(O)C[C@@H](C)CN(C)[C@H](C)[C@@H](O)[C@]1(C)O [Azithromycin, azithromycin] | 0.06 mg/L (≈ 0.0801 µM) | 0.5 mg/L (≈ 0.668 µM) | 0.06 mg/L (≈ 0.0801 µM) | 0.25 mg/L (≈ 0.334 µM) | 0.06 mg/L (≈ 0.0801 µM) | 0.06 mg/L (≈ 0.0801 µM) | 0.5 mg/L (≈ 0.668 µM) | 0.25 mg/L (≈ 0.334 µM) | 0.25 mg/L (≈ 0.334 µM) | active | MIC (Chlamydia pneumoniae [1]; Chlamydia pneumoniae, strain 4 (clinical isolate), test I, read-out: MIC): 0.5 mg/L (≈ 0.668 µM); MIC (Chlamydia pneumoniae [1]; Chlamydia pneumoniae, strain 6 (clinical isolate), test II, read-out: MIC): 0.25 mg/L (≈ 0.334 µM); MIC (Chlamydia pneumoniae [1]; Chlamydia pneumoniae, strain 7 (clinical isolate), test I, read-out: MIC): 0.25 mg/L (≈ 0.334 µM); MIC (Chlamydia pneumoniae [1]; Chlamydia pneumoniae, strain 7 (clinical isolate), test II, read-out: MIC): 0.25 mg/L (≈ 0.334 µM); MIC (Chlamydia pneumoniae [1]; Chlamydia pneumoniae, strain 8 (clinical isolate), test I, read-out: MIC): 0.25 mg/L (≈ 0.334 µM); MIC (Chlamydia pneumoniae [1]; Chlamydia pneumoniae, strain 8 (clinical isolate), test II, read-out: MIC): 0.25 mg/L (≈ 0.334 µM); MIC (Chlamydia pneumoniae [1]; Chlamydia pneumoniae, strain 9 (clinical isolate), test I, read-out: MIC): 0.5 mg/L (≈ 0.668 µM); MIC (Chlamydia pneumoniae [1]; Chlamydia pneumoniae, strain TW 183, test II, read-out: MIC): 0.25 mg/L (≈ 0.334 µM) |
| > 16 mg/L | CO/N=C(\C(=O)N[C@@H]1C(=O)N2C(C(=O)O)=C(CSc3nc(=O)c(=O)[nH]n3C)CS[C@H]12)c1csc(N)n1 [Ceftriaxone, ceftriaxone] | – | – | – | – | – | – | – | – | – | – | – |

| SMILES | MIC (Chlamydia pneumoniae [1]; [3]) | MIC (Chlamydia pneumoniae [1]; [4]) | MIC (Chlamydia pneumoniae [1]; [5]) | MIC (Chlamydia pneumoniae [1]; [6]) | MIC (Chlamydia pneumoniae [1]; [7]) | MIC (Chlamydia pneumoniae [1]; [8]) | MIC (Chlamydia pneumoniae [1]; [9]) | MIC (Chlamydia pneumoniae [1]; [10]) | MIC (Chlamydia pneumoniae [1]; [11]) | MIC (Chlamydia pneumoniae [1]; [12]) | activity in vitro against Chlamydia pneumoniae (Chlamydia pneumoniae [2]) | also measured |
| --- | --- | --- | --- | --- | --- | --- | --- | --- | --- | --- | --- | --- |
| CC[C@H]1OC(=O)[C@H](C)[C@@H](O[C@H]2C[C@@](C)(OC)[C@@H](O)[C@H](C)O2)[C@H](C)[C@@H](O[C@@H]2O[C@H](C)C[C@H](N(C)C)[C@H]2O)[C@](C)(OC)C[C@@H](C)C(=O)[C@H](C)[C@@H](O)[C@]1(C)O [Clarithromycin, clarithromycin] | 0.03 to 0.25 mg/L (≈ 0.0401 to 0.334 µM) | 0.03 mg/L (≈ 0.0401 µM) | 0.03 mg/L (≈ 0.0401 µM) | 0.25 mg/L (≈ 0.334 µM) | 0.03 mg/L (≈ 0.0401 µM) | 0.03 mg/L (≈ 0.0401 µM) | 0.03 mg/L (≈ 0.0401 µM) | 0.06 mg/L (≈ 0.0802 µM) | 0.03 mg/L (≈ 0.0401 µM) | 0.03 mg/L (≈ 0.0401 µM) | active | MIC (Chlamydia pneumoniae [1]; Chlamydia pneumoniae): 0.125 mg/L (≈ 0.167 µM); MIC (Chlamydia pneumoniae [1]; Chlamydia pneumoniae, ATCC2023, strain ATCC 2023, test II, read-out: MIC): 0.03 mg/L (≈ 0.0401 µM); MIC (Chlamydia pneumoniae [1]; Chlamydia pneumoniae, strain 1 (clinical isolate), test II, read-out: MIC): 0.03 mg/L (≈ 0.0401 µM); MIC (Chlamydia pneumoniae [1]; Chlamydia pneumoniae, strain 6 (clinical isolate), test I, read-out: MIC): 0.03 mg/L (≈ 0.0401 µM); MIC (Chlamydia pneumoniae [1]; Chlamydia pneumoniae, strain 9 (clinical isolate), test II, read-out: MIC): 0.03 mg/L (≈ 0.0401 µM); MIC (Chlamydia pneumoniae [1]; Chlamydia pneumoniae, strain TW 183, test I, read-out: MIC): 0.03 mg/L (≈ 0.0401 µM); MIC (Chlamydia pneumoniae [1]; strain 4 (clinical isolate), test I): 0.125 mg/L (≈ 0.167 µM); MIC (Chlamydia pneumoniae [1]; strain 7 (clinical isolate), test I): 0.125 mg/L (≈ 0.167 µM); MIC (Chlamydia pneumoniae [1]; strain 7 (clinical isolate), test II): 0.125 mg/L (≈ 0.167 µM); MIC (Chlamydia pneumoniae [1]; strain 8 (clinical isolate), test I): 0.125 mg/L (≈ 0.167 µM); MIC (Chlamydia pneumoniae [1]; strain 8 (clinical isolate), test II): 0.125 mg/L (≈ 0.167 µM); MIC (Chlamydia pneumoniae [1]; strain 9 (clinical isolate), test I): 0.125 mg/L (≈ 0.167 µM); MIC (Chlamydia pneumoniae [1]; strain TW 183, test II): 0.125 mg/L (≈ 0.167 µM) |
